One series relates to MC-38 colon tumor. More on the design: method as in our previous research (data not shown). The conditions noted are these: in vivo; ref our previous research (data not shown); cited from earlier work.
The subject of the next series is p-MEK1/2 and p-Erk1/2. As to the kind of experiment: Western blot assay of p-MEK1/2 and p-Erk1/2 in MC-38 cells. The conditions noted are these: 10 h. The format is cell-based, Murine. On the procedure: MC38 cells were lysed using whole protein extraction kit (KeyGEN BioTECH, Nanjing, China, KGP250). Protein concentration was determined using bicinchoninic acid (BCA) protein assay (KeyGEN BioTECH, Nanjing, China, KGPBCA). Protein extracts were electrophoresed in 10% SDS-PAGE and transferred to a nitrocellulose filter (NC) membrane, blocked by 5% skim milk at room temperature for 1 h, which was prepared in Tris-buffered saline with tween 20 (TBST). Then, the membranes were immunoblotted by primary antibodies. For detection, HRP-conjugated secondary antibodies (Ray Antibody Biotech, Beijing, China, RM2001L) and chemiluminescent HRP substrate kit (EpiZyme, Shanghai, China, SQ2O2) were used. As the molecular weight of the target bands is similar, the western blot fast stripping buffer (EpiZyme, Shanghai, China, PS107) was used. The following primary antibodies were used: anti-p-MEK1/2 (Cell Signaling Technology (CST), 41G9, Boston, MA), anti-p-Erk1/2 (CST, 197G2). The blots were quantified using ImageJ (National Institutes of Health, Bethesda, MD) and normalized to the control group.
In general terms: Immunoblotting shows a protein as a band on a membrane.

The next series deals with MC-38 cells. As to the kind of experiment: In vitro cytotoxicity, CCK-8 assay. The conditions noted are these: Mus musculus, 72 h, curcumin concentration. Format: cell-based, Murine. On the procedure:
The cytotoxicity of s-Cur, Cur/NCMs, and Cur/DCMs against MC-38 cells was determined by a CCK-8 assay. Briefly, MC-38 cells were cultured in RPMI1640 medium with 10% FBS, penicillin (100 U/mL), and streptomycin (100 µg/mL) for 24 h. Then, the cells were seeded in 96-well plates (Corning, NY) at 10,000 cells/well in 100 µL medium. After incubation for 24 h, the cells were exposed to s-Cur and equivalent amount of Cur/NCMs and Cur/DCMs to yield final curcumin concentrations from 0 to 65 µg/mL. For GSH triggered release experiments, adherent cells were incubated with 10 mM glutathione monoethyl ester (GSH-OEt) for 2 h before exposure to the curcumin formulations.
After incubation for 72 h, 10 μL CCK8 solution with 100 μL growth medium was added into each well and the cells were incubated for another 1 h. Then, the culture medium was added with 10 μL 1% SDS (dissolve 0.1 g SDS with PBS to obtain 10 mL solution) to stop the reaction, and reading on a Synergy HTX multi-mode reader (BioTek, Winooski, VT) at 450 nm. The cytotoxicity assay was performed in triplicate and the cell viability (%) was calculated with the following equation: (3) Cell viability=At−AB/Ac−AB×100% where At is the absorption value of samples, Ac is the absorption value of the control group, and AB is the absorption value of the blank group. […]
(Tetrazolium dyes change colour on reduction, which living cells bring about.)

A short description of series [1]: Pharmacokinetics after i.v. administration in SD rats. The format is in vivo. The conditions noted are these: Sprague-Dawley, rat, plasma, iv. On the procedure: Nine SD rats were randomly divided into three groups (three rats for each group), receiving s-Cur, Cur/NCMs, and Cur/DCMs. Following the intravenous (i.v.) administration of the three curcumin formulations (20 mg/kg), 0.1 mL of the blood samples was collected from the tail vein at predetermined time intervals. The blood samples were centrifuged for 6 min at 5867×g to obtain the plasma. Then, the curcumin concentrations in the plasma were analyzed using a liquid chromatography mass spectrometer (LCMS-2020) equipped with a Shimadzu UV-visible spectrophotometer (Columbia, MD). The detection limitation of the equipment was 1 ng/mL. We employed the non-compartmental analysis in WinNonlin software V6.2.1 to calculate major pharmacokinetic parameters.

Series [2] is described as follows: In vitro release of curcumin by dynamic dialysis method. The format is physicochemical. As to conditions: 20% SDS release medium, 37 °C. On the procedure:
In order to evaluate the crosslinking effect, in vitro release profiles of curcumin from DMSO (s-Cur), Cur/NCMs, and Cur/DCMs were studied by dynamic dialysis method with 20% SDS solution as release medium. Lyophilized micelles were reconstituted and diluted to 1 mg/mL of curcumin with PBS (0.1 M, pH 7.4) then placed 1 mL into dialysis tube (MWCO 8000–14,000 Da). The tubes were dialyzed against 50 mL release medium at 37 ± 0.5 °C at a stirring speed of 100 rpm with or without 10 mM GSH. At predetermined time intervals, 1 mL of release medium was withdrawn and replenished with an equal volume of the fresh medium. The amount of curcumin released was determined by HPLC analysis as mentioned above. Cumulative release of curcumin was then calculated. The in vitro release studies were carried out in triplicate.

The values below come from paper PMC8118404, “Synergistic effect of the anti-PD-1 antibody with blood stable and reduction sensitive curcumin micelles on colon cancer” (Drug Delivery, 2021).

With `COc1cc(C=CC(=O)CC(=O)C=Cc2ccc(O)c(OC)c2)ccc1O` [s-Cur, 1,7-bis(4-hydroxy-3-methoxyphenyl)-1,6-heptadiene-3,5-dione], the “enhancement of the antitumor effects of anti-PD-1” value in the series on MC-38 colon tumor is “not to be able to significantly enhance the antitumor effects of anti-PD-1”. The “expression of the proliferative marker proteins p-MEK1/2 and p-ERK1/2” value with p-MEK1/2 and p-Erk1/2 was “significantly low expression”. In the series on MC-38 cells, the IC50 – broadly, the concentration that gives 50% inhibition – worked out at 13.7 mg/L. Besides, in series [1] (i.v. 20 mg/kg, after 12 h (detection limit), read-out: plasma curcumin level), the concentration at 12 h is below 0.001 µg/mL. Moreover, the concentration at 30 min in series [1] (i.v. 20 mg/kg, within 30 min, read-out: plasma curcumin level) is below 0.1 µg/mL. In series [1] (single dosage 20 mg/kg), the AUC(0-inf) (usually total exposure, with the tail of the curve extrapolated) amounted to 1.97 µg·h/mL; the exposure AUC(0-t) – broadly, exposure summed from dosing to a finite time, without extrapolation to infinity – came to 1.96 µg·h/mL; the Cmax (in general, the peak of the concentration-time curve) amounted to 7.12 µg/mL; the half-life (in general, how long it takes for the measured level to halve) was 83.4 min. Also, in series [1] (single dosage 20 mg/kg, read-out: CLz (converted)), the clearance was 10.2 L/h/kg. In addition, the MRT last in series [1] (single dosage 20 mg/kg, read-out: MRT(0–t)) came to 9 min. Besides, in series [1] (single dosage 20 mg/kg, read-out: MRT(0–∞)), the MRT inf amounted to 9.6 min. The Vd in series [1] (single dosage 20 mg/kg, read-out: Vz) came to 20.4 L/kg. For the same molecule, in series [2] (at 24 h), the curcumin released was found to be 75%. In addition, the curcumin released result in series [2] (within the first 8 h) is recorded as “About 60%”.
